We go through ten compounds from article PMC9000336, “Development of Bicyclo[3.1.0]hexane-Based A3 Receptor Ligands: Closing the Gaps in the Structure–Affinity Relationships” (Molecules, 2022).

Where two headings read alike, the source gives them in different places.

For the assay, the target named is T1, hA2B receptor (Homo sapiens, UniProt P29275).
T1 construct: expressed in transfected cells; host or cells: CHO-spap cells (CHO-spap-hA2BR), from S. J. Dowell (GlaxoSmithKline); membrane preparation
T1 sequence (P29275 1-332): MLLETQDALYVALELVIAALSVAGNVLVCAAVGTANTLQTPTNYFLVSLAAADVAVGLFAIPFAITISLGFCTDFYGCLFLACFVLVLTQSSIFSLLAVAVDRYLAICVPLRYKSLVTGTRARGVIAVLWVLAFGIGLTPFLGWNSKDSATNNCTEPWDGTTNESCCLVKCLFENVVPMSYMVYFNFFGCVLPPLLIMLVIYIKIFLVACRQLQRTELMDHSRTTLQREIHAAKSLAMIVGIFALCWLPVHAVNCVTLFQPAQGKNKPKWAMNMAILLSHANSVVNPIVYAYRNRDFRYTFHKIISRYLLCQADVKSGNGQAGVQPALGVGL
The experiment in a line: Radioligand displacement assay, human adenosine A2B receptor ([3H]PSB-603, CHO-spap-hA2BR membranes). Conditions: n = 3; for A2B displacement at 1 µM: footnote a: test compound 1 µM. Type of assay: binding. On the procedure:
Human embryonic kidney 293 cells stably expressing the human adenosine A2A receptor (HEK293hA2AR) were kindly provided by Dr. J. Wang (Biogen/IDEC, Cambridge, MA, USA), CHO-spap cells stably expressing the wild-type (WT) hA2B receptor (CHO-spap-hA2BR) were kindly provided by S. J. Dowell (GlaxoSmithKline, Brentfort, UK).
Chinese hamster ovary cells stably expressing the […] and a reporter gene, the secreted placental alkaline phosphatase, (CHO-spap-hA2BR) were grown in DMEM and Ham’s F12 medium (1:1) supplemented with 10% (v/v) newborn calf serum, 100 µg/mL streptomycin, 100 IU/mL penicillin, 1 mg/mL G418, and 0.4 mg/mL hygromycin at 37 °C and 5% CO2.
All cells were grown to 80–90% confluency and detached from plates by scraping them into 5 mL phosphate-buffered saline. Detached cells were collected and centrifuged at 200 g for 5 min. Pellets derived from 100 15 cm Ø plates were pooled and resuspended in 70 mL of ice-cold 50 mM tris(hydroxymethyl)aminomethane (Tris)-HCl buffer, pH 7.4. A Heidolph Diax 900 homogenizer was used to homogenize the cell suspension. Membranes and the cytosolic fraction were separated by centrifugation at 100,000 g in a Beckman Optima LE-80 K ultracentrifuge (Beckman Coulter, Fullerton, CA, USA) at 4 °C for 20 min. The pellet was resuspended in 35 mL of the Tris-HCl buffer, and the homogenization and centrifugation steps were repeated. Tris-HCl buffer (25 mL) was used to resuspend the pellet, and adenosine deaminase (ADA) was added (0.8 U/mL) to break down endogenous adenosine. Membranes were stored in 250 µL and 500 µL aliquots at −80 °C. Total protein concentrations were measured using the bicinchoninic acid (BCA) method.
A2B Receptor: Membrane aliquots containing 30 µg (CHO-spap-hA2BR) total protein were incubated in a total volume of 100 µL assay buffer (0.1% CHAPS in 50 mM TrisHCl, pH 7.4) at 25 °C for 2 h. […] Nonspecific binding was determined in the presence of 10 µM ZM241385. Incubations were terminated by rapid vacuum filtration to separate the bound and free radioligand through prewetted 96-well GF/B filter plates using a PerkinElmer Filtermate-harvester (Perkin Elmer, Groningen, the Netherlands). Filters were subsequently washed 12 times with ice-cold 0.1% BSA in 50 mM Tris-HCl, pH 7.4.
The plates of all four adenosine receptor assays were dried at 55 °C after which MicroscintTM-20-cocktail was added (Perkin Elmer, Groningen, The Netherlands).
All experimental data were analyzed using the non-linear regression curve fitting program GraphPad Prism 7.0 (GraphPad Software Inc., San Diego, CA, USA). IC50 values obtained from competition displacement binding data were converted into Ki values using the Cheng–Prusoff equation.

[1] abbreviates: footnote a: tested at 1 µM, read-out: A2B Ki (bound, footnote a).
[2] abbreviates: [3H]PSB-603, read-out: A2B Ki ± SEM.

On to `CSc1nc(N)c2ncn([C@H]3[C@H](O)[C@H](O)[C@]4(Cn5cc(C(=O)O)nn5)C[C@H]34)c2n1` [Compound 44, 1-{[(1R,2R,3S,4R,5S)-4-(6-Amino-2-methylthio-9H-purin-9-yl)-2,3-dihydroxybicyclo[3.1.0]hex-1-yl]methyl}-1H-1,2,3-triazole-4-carboxylic acid], for which the “A2B displacement at 1 µM” value is 2% ^a.

In the case of `CCN(CC)CC.CSc1nc(N)c2ncn([C@H]3[C@H](O)[C@H](O)[C@]4(CNc5c(O)c(=O)c5=O)C[C@H]34)c2n1` [Compound 47, Triethylammonium 2-{[(1R,2R,3S,4R,5S)-4-(6-Amino-2-methylthio-9H-purin-9-yl)-2,3-dihydroxybicyclo[3.1.0]hex-1-yl]methyl}amino-3,4-dioxocyclobut-1-en-1-olate], under setting [1], the Ki (usually a measure of affinity in units of concentration, obtained from inhibition or displacement) was above 1 µM.

For the compound `CSc1nc(N)c2ncn([C@H]3[C@H](O)[C@H](O)[C@]4(Cn5cc(CC(=O)O)nn5)C[C@H]34)c2n1` [Compound 45, 2-(1-{[(1R,2R,3S,4R,5S)-4-(6-Amino-2-methylthio-9H-purin-9-yl)-2,3-dihydroxybicyclo[3.1.0]hex-1-yl]methyl}-1H-1,2,3-triazol-4-yl)acetic acid], the “A2B displacement at 1 µM” value amounted to 5% ^a.

Regarding `COc1ccc(CNc2cc(Cl)nc3c2ncn3[C@H]2[C@H](O)[C@H](O)[C@]3(CO)C[C@H]23)cc1` [Compound 15, (1R,2R,3S,4R,5S)-4-{5-Chloro-7-[(4-methoxy)benzylamino]-3H-imidazo[4,5-b]pyridin-3-yl}-1-(hydroxymethyl)bicyclo[3.1.0]hexane-2,3-diol], the Ki under setting [2] was above 10 µM.

As to `CCN(CC)CC.CSc1nc(N)c2ncn([C@H]3[C@H](O)[C@H](O)[C@]4(CNS(=O)(=O)CC(=O)O)C[C@H]34)c2n1` [Compound 48, Triethylammonium 2-(N-{[(1R,2R,3S,4R,5S)-4-(6-amino-2-methylthio-9H-purin-9-yl)-2,3-dihydroxybicyclo[3.1.0]hex-1-yl]methyl}sulfamoyl)acetate], the Ki under setting [1] was above 1 µM.

Take `CSc1nc(N)c2ncn([C@H]3[C@H](O)[C@H](O)[C@]4(Cn5cc(CN)nn5)C[C@H]34)c2n1` [Compound 43, (1R,2R,3S,4R,5S)-4-(6-Amino-2-methylthio-9H-purin-9-yl)-1-{[4-(aminomethyl)-1H-1,2,3-triazol-1-yl]methyl}bicyclo[3.1.0]hexane-2,3-diol]: the Ki under setting [2] is above 10 µM.

As for `CSc1nc(N)c2ncn([C@H]3[C@H](O)[C@H](O)[C@]4(Cn5cc(CO)nn5)C[C@H]34)c2n1` [Compound 39, (1R,2R,3S,4R,5S)-4-(6-Amino-2-methylthio-9H-purin-9-yl)-1-{[4-(hydroxymethyl)-1H-1,2,3-triazol-1-yl]methyl}bicyclo[3.1.0]hexane-2,3-diol], the Ki under setting [2] was above 10 µM.

As for `Nc1cc(Cl)c2ncn([C@H]3[C@H](O)[C@H](O)[C@]4(CO)C[C@H]34)c2n1` [Compound 11, (1R,2R,3S,4R,5S)-4-(5-Amino-7-chloro-3H-imidazo[4,5-b]pyridin-3-yl)-1-(hydroxymethyl)bicyclo[3.1.0]hexane-2,3-diol], under setting [2], the Ki is above 10 µM.

As to `CSc1nc(N)c2ncn([C@H]3[C@H](O)[C@H](O)[C@]4(Cn5cc(CCC(=O)O)nn5)C[C@H]34)c2n1` [Compound 46], the “A2B displacement at 1 µM” value was 1% ^a.

For the compound `OC[C@@]12C[C@@H]1[C@@H](n1cnc3c(N(Cc4ccccc4)Cc4ccccc4)nc(Cl)nc31)[C@H](O)[C@@H]2O` [Compound 27, (1R,2R,3S,4R,5S)-4-[6-(Dibenzylamino)-2-chloro-9H-purin-9-yl]-1-(hydroxymethyl)bicyclo[3.1.0]hexane-2,3-diol], the Ki under setting [2] was above 10 µM.
